46 compounds from US6573275B1, “Bicyclic amines” (Syngenta Limited, priority 1995, dated 2003) can be followed below.

This data set has as its system peach aphid (Myzus persicae). As to the kind of experiment: Insecticidal test against peach aphid, infested Chinese cabbage leaves sprayed. The data set is classed as in vivo. To be noted: peach aphid (Myzus persicae) on Chinese cabbage leaves, sprayed with 500 ppm composition unless otherwise stated, mortality assessed after 3 days. Put shortly: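 Aphid-infested Chinese cabbage leaves were sprayed with compound at 500 ppm unless otherwise stated, formulated in acetone/ethanol diluted with water containing 0.05% Synperonic NP8. Mortality was assessed after 3 days.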
As for `CC(C)N(C(=O)N1C2CCC1CC(C#N)(c1cncc(Cl)c1)C2)C(C)C` (stereo not drawn) [Compound 150, exo-3-(5-chloropyrid-3-yl)-endo-3-cyano-8-(diisopropylcarbamyl)-8-azabicyclo[3.2.1]octane], the “Score (grading of mortality)” value is reported as “A (A indicates 80-100% mortality)”.

In the case of `N#CC1(c2cncc(Cl)c2)CC2CCC(C1)N2c1c(F)c(F)c(F)c(F)c1F` (stereo not drawn) [Compound 151, exo-3-(5-chloropyrid-3-yl)-endo-3-cyano-8-pentafluorophenyl-8-azabicyclo[3.2.1]octane], the “Score (grading of mortality)” value is “A (A indicates 80-100% mortality)”.

On to `N#CC1(c2cncc(Cl)c2)CC2CCC(C1)N2c1cc(Cl)ncn1` (stereo not shown) [Compound 152], for which the “Score (grading of mortality)” value is recorded as “A (A indicates 80-100% mortality)”.

With `CC(=O)Nc1nc(CN2C3CCC2CC(C#N)(c2cncc(Cl)c2)C3)cs1` (stereo not shown) [Compound 153], the “Score (grading of mortality)” value was “A (A indicates 80-100% mortality)”.

With `N#CC1(c2cncc(Cl)c2)CC2CCC(C1)N2C(=O)Nc1ccc(F)c(Cl)c1` (stereo not shown) [Compound 154], the “Score (grading of mortality)” value was “B (B indicates 40-79% mortality)”.

`N#CC1(c2cncc(Cl)c2)CC2CCC(C1)N2c1cncc(Cl)c1` (stereo not shown) [Compound 155]: the “Score (grading of mortality)” value was “A (A indicates 80-100% mortality)”.

For `N#CC1(c2cncc(Cl)c2)CC2CCC(C1)N2C(=O)c1cnccc1C(F)(F)F` (stereo not shown) [Compound 157], the “Score (grading of mortality)” value is on record as “C (C indicates less than 40% mortality)”.

On to `N#CC1(c2cncc(Cl)c2)CC2CCC(C1)N2Cc1nnsc1Cl` (stereo not drawn) [Compound 158, exo-3-(5-chloropyrid-3-yl)-endo-3-cyano-8-((5-chloro-1,2,3-thiadiazol-4-yl)methyl)-8-azabicyclo[3.2.1]octane], for which the “Score (grading of mortality)” value is listed as “A (A indicates 80-100% mortality)”.

For the compound `CC(C=O)(c1ccccc1)N1C2CCC1CC(C#N)(c1cncc(Cl)c1)C2` (stereo not drawn) [Compound 159, exo-3-(5-chloropyrid-3-yl)-endo-3-cyano-8-(2-phenyl-3-oxo-prop-2-yl)-8-azabicyclo[3.2.1]octane], the “Score (grading of mortality)” value is recorded as “A (A indicates 80-100% mortality)”.

With `N#CC1(c2cncc(Cl)c2)CC2CCC(C1)N2CCCC(F)(F)F` (stereo not shown) [Compound 160], the “Score (grading of mortality)” value is reported as “A (A indicates 80-100% mortality)”.

Consider `COc1cncc(C2(C#N)CC3CCC(C2)N3CC(F)(F)F)c1` (stereo not shown) [Compound 161], for which the “Score (grading of mortality)” value is reported as “A (A indicates 80-100% mortality)”.

Consider `CCOC(=O)c1ccc(N2C3CCC2CC(C#N)(c2cncc(Cl)c2)C3)cc1` (stereo not shown) [Compound 162], for which the “Score (grading of mortality)” value was “C (C indicates less than 40% mortality)”.

Turning to `N#CC1(c2cnc(F)c(Cl)c2)CC2CCC(C1)N2CC(F)(F)F` (stereo not shown) [Compound 163], the “Score (grading of mortality)” value was “C (C indicates less than 40% mortality)”.

For `CC(=O)Nc1cncc(C2(C#N)CC3CCC(C2)N3C)c1` (stereo not drawn) [Compound 165, exo-3-(5-acetylamidopyrid-3-yl)-endo-3-cyano-8-methyl-8-azabicyclo[3.2.1]octane], the “Score (grading of mortality)” value was “A (A indicates 80-100% mortality)”.

Regarding `COc1cncc(C2(C#N)CC3CCC(C2)N3CC#N)c1` (stereo not shown) [Compound 166], the “Score (grading of mortality)” value is reported as “A (A indicates 80-100% mortality)”.

Regarding `N#CC1(c2cncc(Cl)c2)CC2CCC(C1)N2c1nc(CCl)ns1` (stereo not shown) [Compound 167], the “Score (grading of mortality)” value is reported as “A (A indicates 80-100% mortality)”.

In the case of `N#CC1(c2cncc(Cl)c2)CC2CCC(C1)N2c1ncc(Cl)s1` (stereo not drawn) [Compound 168, exo-3-(5-chloropyrid-3-yl)-endo-3-cyano-8-(5-chlorothiazol-2-yl)-8-azabicyclo[3.2.1]octane], the “Score (grading of mortality)” value is “A (A indicates 80-100% mortality)”.

Take `N#CN1C2CCC1CC(C#N)(c1cncc(Cl)c1)C2` (stereo not drawn) [Compound 169, exo-3-(5-chloropyrid-3-yl)-endo-3-cyano-8-cyano-8-azabicyclo[3.2.1]octane]: the “Score (grading of mortality)” value is listed as “A (A indicates 80-100% mortality)”.

With `N#CC1(c2cncc(Cl)c2)CC2CCC(C1)N2c1ccc(C(=O)O)cc1` (stereo not shown) [Compound 170], the “Score (grading of mortality)” value was “B (B indicates 40-79% mortality)”.

In the case of `C=COC(=O)N1C2CCC1CC(C#N)(c1cncc(OC)c1)C2` (stereo not shown) [Compound 171], the “Score (grading of mortality)” value is given as “A (A indicates 80-100% mortality)”.

As to `COc1cncc(C2(C#N)CC3CCC(C2)N3)c1` (stereo not shown) [Compound 172], the “Score (grading of mortality)” value is listed as “A (A indicates 80-100% mortality)”.

As for `N#CC1(c2cncc(Cl)c2)CC2CCC(C1)N2c1ccc(Cl)cc1` (stereo not shown) [Compound 173], the “Score (grading of mortality)” value was “A (A indicates 80-100% mortality)”.

Take `CN1C2CCC1CC(C#N)(c1cncc(C(F)(F)F)c1)C2` (stereo not drawn) [Compound 174, exo-3-(5-trifluoromethylpyrid-3-yl)-endo-3-cyano-8-methyl-8-azabicyclo[3.2.1]octane]: the “Score (grading of mortality)” value is listed as “A (A indicates 80-100% mortality)”.

Take `C=CC(C)(c1ccccc1)N1C2CCC1CC(C#N)(c1cncc(Cl)c1)C2` (stereo not drawn) [Compound 175, exo-3-(5-chloropyrid-3-yl)-endo-3-cyano-8-(2-phenylbut-3-en-2-yl)-8-azabicyclo[3.2.1]octane]: the “Score (grading of mortality)” value is “A (A indicates 80-100% mortality)”.

On to `CC(CO)(c1ccccc1)N1C2CCC1CC(C#N)(c1cncc(Cl)c1)C2` (stereo not drawn) [Compound 176, exo-3-(5-chloropyrid-3-yl)-endo-3-cyano-8-(2-phenyl-3-hydroxyprop-2-yl)-8-azabicyclo[3.2.1]octane], for which the “Score (grading of mortality)” value is on record as “A (A indicates 80-100% mortality)”.

In the case of `N#CC1(c2cncc(C(F)(F)F)c2)CC2CCC(C1)N2C=O` (stereo not shown) [Compound 177], the “Score (grading of mortality)” value was “A (A indicates 80-100% mortality)”.

Consider `CC(=O)OCC(C)(c1ccccc1)N1C2CCC1CC(C#N)(c1cncc(Cl)c1)C2` (stereo not drawn) [Compound 178, exo-3-(5-chloropyrid-3-yl)-endo-3-cyano-8-(2-phenyl-3-acetoxyprop-2-yl)-8-azabicyclo[3.2.1]octane], for which the “Score (grading of mortality)” value is “A (A indicates 80-100% mortality)”.

Turning to `CC(F)(CN1C2CCC1CC(C#N)(c1cncc(Cl)c1)C2)c1ccccc1` (stereo not drawn) [Compound 179, exo-3-(5-chloropyrid-3-yl)-endo-3-cyano-8-(2-fluoro-2-phenylprop-1-yl)-8-azabicyclo[3.2.1]octane], the “Score (grading of mortality)” value is recorded as “A (A indicates 80-100% mortality)”.

With `CC(C)CC(C)(C)CCN1C2CCC1CC(C#N)(c1cncc(Cl)c1)C2` (stereo not shown) [Compound 180], the “Score (grading of mortality)” value was “A (A indicates 80-100% mortality)”.

Take `C=COC(=O)N1C2CCC1CC(C#N)(c1cncc(Br)c1)C2` (stereo not shown) [Compound 181]: the “Score (grading of mortality)” value was “A (A indicates 80-100% mortality)”.

Take `N#CC1(c2cncc(Cl)c2)CC2CCC(C1)N2c1ncccn1` (stereo not shown) [Compound 182]: the “Score (grading of mortality)” value is listed as “A (A indicates 80-100% mortality)”.

With `C=COC(=O)N1C2CCC1CC(C#N)(c1cncc(C(F)(F)F)c1)C2` (stereo not shown) [Compound 183], the “Score (grading of mortality)” value is recorded as “A (A indicates 80-100% mortality)”.

Consider `N#CC1(c2cncc(C(F)(F)F)c2)CC2CCC(C1)N2` (stereo not shown) [Compound 184], for which the “Score (grading of mortality)” value is “A (A indicates 80-100% mortality)”.

On to `C=COC(=O)N1C2CCC1CC(C#N)(c1cccnc1)C2` (stereo not drawn) [Compound 185, exo-3-(Pyrid-3-yl)-endo-3-cyano-8-(vinyloxycarbonyl)-8-azabicyclo[3.2.1]octane], for which the “Score (grading of mortality)” value is reported as “A (A indicates 80-100% mortality)”.

On to `N#CC1(c2cncc(C(F)(F)F)c2)CC2CCC(C1)N2Cc1cccc(Cl)c1` (stereo not shown) [Compound 186], for which the “Score (grading of mortality)” value is on record as “A (A indicates 80-100% mortality)”.

`N#CC1(c2cncc(Cl)c2)CC2CCC(C1)N2c1ccnc(Cl)n1` (stereo not shown) [Compound 187]: the “Score (grading of mortality)” value was “C (C indicates less than 40% mortality)”.

Consider `N#CC1(c2cncc(Cl)c2)CC2CCC(C1)N2c1ccc(C(F)(F)F)cc1` (stereo not shown) [Compound 188], for which the “Score (grading of mortality)” value is “A (A indicates 80-100% mortality)”.

Consider `CN1C2CCC1CC(C#N)(c1cncc(-n3cccc3)c1)C2` (stereo not drawn) [Compound 189, exo-3-(5-(pyrrol-1-yl)pyrid-3-yl)-endo-3-cyano-8-methyl-8-azabicyclo[3.2.1]octane], for which the “Score (grading of mortality)” value is “A (A indicates 80-100% mortality)”.

As for `CC(C)NC(C)(CN1C2CCC1CC(C#N)(c1cncc(Cl)c1)C2)c1ccccc1` (stereo not drawn) [Compound 191, exo-3-(5-chloropyrid-3-yl)-endo-3-cyano-8-(2-(isopropylamino)-2-phenylprop-1-yl)-8-azabicyclo[3.2.1]octane], the “Score (grading of mortality)” value was “A (A indicates 80-100% mortality)”.

Take `CC(c1ccccc1)(C(O)C#N)N1C2CCC1CC(C#N)(c1cncc(Cl)c1)C2` (stereo not drawn) [Compound 192, exo-3-(5-chloropyrid-3-yl)-endo-3-cyano-8-(1-hydroxy-1-cyano-2-phenylprop-2-yl)-8-azabicyclo[3.2.1]octane]: the “Score (grading of mortality)” value was “A (A indicates 80-100% mortality)”.

As to `C#Cc1cncc(C2(C#N)CC3CCC(C2)N3C)c1` (stereo not drawn) [Compound 193, exo-3-(5-ethynylpyrid-3-yl)-endo-3-cyano-8-methyl-8-azabicyclo[3.2.1]octane], the “Score (grading of mortality)” value is given as “A (A indicates 80-100% mortality)”.

In the case of `CN1C2CCC1CC(C#N)(c1ccncn1)C2` (stereo not shown) [Compound 194], the “Score (grading of mortality)” value was “A (A indicates 80-100% mortality)”.

As to `C=C(OCC)c1cncc(C2(C#N)CC3CCC(C2)N3C)c1` (stereo not drawn) [Compound 195, exo-3-(5-(1-ethoxyvinyl)pyrid-3-yl)-endo-3-cyano-8-methyl-8-azabicyclo[3.2.1]octane], the “Score (grading of mortality)” value is “A (A indicates 80-100% mortality)”.

With `CCC(C)(C)N1C2CCC1CC(C#N)(c1cccnc1)C2` (stereo not shown) [Compound 196], the “Score (grading of mortality)” value was “A (A indicates 80-100% mortality)”.

For the compound `CCOC(=O)C(C)N1C2CCC1CC(C#N)(c1cncc(Cl)c1)C2` (stereo not drawn) [Compound 197, exo-3-(5-chloropyrid-3-yl)-endo-3-cyano-8-(1-(ethoxycarbonyl)ethyl)-8-azabicyclo[3.2.1]octane], the “Score (grading of mortality)” value is “A (A indicates 80-100% mortality)”.

With `CN1C2CCC1CC(C#N)(c1ncncc1Br)C2` (stereo not shown) [Compound 198], the “Score (grading of mortality)” value is recorded as “A (A indicates 80-100% mortality)”.
